Results from paper PMC10282093, “Structural basis of α1A-adrenergic receptor activation and recognition by an extracellular nanobody” (Nature Communications, 2023).
Several values for one entry are separate records, joined by “and”; a condition that tells them apart may be missing. Equal entries are not always repeated.

T1: α1AAR (Homo sapiens, UniProt P35348)
T1 sequence (P35348 1-370): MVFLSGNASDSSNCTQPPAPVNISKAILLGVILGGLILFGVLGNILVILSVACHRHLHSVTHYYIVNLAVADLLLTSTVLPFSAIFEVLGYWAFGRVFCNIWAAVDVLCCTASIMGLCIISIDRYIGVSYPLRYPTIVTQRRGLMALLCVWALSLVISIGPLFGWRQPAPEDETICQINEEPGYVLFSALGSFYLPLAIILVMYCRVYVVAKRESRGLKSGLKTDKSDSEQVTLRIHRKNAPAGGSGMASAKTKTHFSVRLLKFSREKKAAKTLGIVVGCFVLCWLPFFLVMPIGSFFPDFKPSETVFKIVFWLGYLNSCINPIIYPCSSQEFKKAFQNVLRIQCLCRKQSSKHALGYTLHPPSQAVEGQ

B1: Nb6: nanobody that engages the ICL3 of the inactive-state κ-opioid receptor (antibody, V domains shown)
VH: QVQLQESGGGLVQAGESLRLSCAASGTIFRLYDMGWYRRVSGNQRELVASITSGGSTKYGDSVKGRFTISRDNAKNTVYLQMSSLKPEDTAVYYCNAEYRTGIWEELLDGWGQGTQVTVSS

Molecular target: T1, α1AAR
Test: [3H]prazosin radioligand binding, Sf9 membranes
Conditions: for [3H]prazosin binding: SupFig 5b, listed as Tam
Experimental: After centrifugation, the pellet was homogenized in binding buffer and used as the membrane fraction in binding assays. […] Receptors were incubated for 1 h at room temperature with various concentrations of ligand in a total volume of 100 µl. After the reaction, the mixture was trapped on Whatman GF/B glass filters. Bound and free radioligands were separated by washing with ice-cold binding buffer. Radioactivity was measured on a MicroBeta2 liquid scintillation counter (PerkinElmer).

| Molecule | [3H]prazosin binding (Tam Log[M] -4) | [3H]prazosin binding (Tam Log[M] -5) | [3H]prazosin binding (Tam Log[M] -6) | [3H]prazosin binding (Tam Log[M] -7) | [3H]prazosin binding (Tam Log[M] -8) | [3H]prazosin binding (Tam Log[M] -9) | [3H]prazosin binding (Tam Log[M] -10) | [3H]prazosin binding (Tam Log[M] -11) | Normalized [3H]prazosin-binding (with 5 μM Nb6) |
| --- | --- | --- | --- | --- | --- | --- | --- | --- | --- |
| CCOc1ccccc1OCCN[C@H](C)Cc1ccc(OC)c(S(N)(=O)=O)c1 [Tamsulosin, tamsulosin] | 3.325% and 3.807% and 3.682% | 5.496% and 6.839% and 6.881% | 11.244% and 11.6216% and 10.1426% | 16.0268% and 19.0266% and 22.7187% | 68.1875% and 65.3346% and 66.6562% | 89.8993% and 114.569% and 102.297% | 91.4097% and 102.161% and 96.6541% | 80.1028% and 92.7732% and 127.271% | – |
| B1 | – | – | – | – | – | – | – | – | 88.7285% and 103.574% and 107.698% |
